According to US5756121A, “Antibiotic formulation and use for drug resistant infections” (NeXstar Pharmaceuticals, Inc., priority 1995, dated 1998):
Values joined by “and” are separate entries in the source; they are usually repeats but may differ in a detail not shown here. Identical values can stand only once. “Also recorded” adds a separate entry of the source. Like-named read-outs stand apart in the source and are kept apart here.

Tested on: M. tuberculosis, drug resistant strain Vertulla
Type: cell-based, Mycobacterium tuberculosis (in human macrophages)
Settings: for CFU: duplicate values

Question: Which results are given for `NCC[C@H](O)C(=O)N[C@@H]1C[C@H](N)[C@@H](O[C@H]2O[C@H](CN)[C@@H](O)[C@H](O)[C@H]2O)[C@H](O)[C@H]1O[C@H]1O[C@H](CO)[C@@H](O)[C@H](N)[C@H]1O` [amikacin]?
Answer: CFU (4 μg/ml, day 4): 9.3 1 × 10^3 cfu per monolayer and 8.0 1 × 10^3 cfu per monolayer; CFU (8 μg/ml, day 4): 5 1 × 10^3 cfu per monolayer and 4 1 × 10^3 cfu per monolayer; CFU (8 μg/ml, day 7): 4.5 1 × 10^3 cfu per monolayer and 6.2 1 × 10^3 cfu per monolayer; CFU (16 μg/ml, day 4): 5 1 × 10^3 cfu per monolayer and 5.4 1 × 10^3 cfu per monolayer; CFU (16 μg/ml, day 7): 3.7 1 × 10^3 cfu per monolayer and 4.1 1 × 10^3 cfu per monolayer; inhibition / killing of drug resistant bacteria (in words) (4, 8 and 16 μg/ml, killing = fewer cfu than previous time point, listed as free amikacin): at the most, inhibition; also recorded: only inhibit the growth of the infection without killing
